The record followed here is patent publication US11884627B2, “Compounds and compositions for treating conditions associated with LPA receptor activity” (Lhotse Bio, Inc., priority 2022, dated 2024).

The test addresses T1, human LPA1 (Homo sapiens, UniProt Q92633).
T1 construct: expressed in transfected cells; host or cells: CHO-K1
As to the kind of experiment: In vitro LPA1 calcium flux antagonist assay - Bioduro protocol. It counts as cell-based. Particulars: CHO-K1 cells overexpressing human LPA1 and G15a, LPA challenge at EC80. Put shortly:
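Calcium mobilization read on FLIPR after EC80 LPA was added to compound-pretreated (30 min) CHO-K1 cells co-expressing human LPA1 and G15a. Cells were starved 4 h and dye-loaded with Fluo-8 AM/2.5 mM probenecid in HBSS-Hepes; inhibition normalized between DMSO and LPA-control RFU.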

[1] abbreviates: calcium mobilization on FLIPR Tetra, read-out: IC50.
The mark [2] stands for this setting: Table B3, read-out: Activity (IC50 class).

Read-outs that look alike come from different tables or passages of the source.

T1 sequence (Q92633 whole entry): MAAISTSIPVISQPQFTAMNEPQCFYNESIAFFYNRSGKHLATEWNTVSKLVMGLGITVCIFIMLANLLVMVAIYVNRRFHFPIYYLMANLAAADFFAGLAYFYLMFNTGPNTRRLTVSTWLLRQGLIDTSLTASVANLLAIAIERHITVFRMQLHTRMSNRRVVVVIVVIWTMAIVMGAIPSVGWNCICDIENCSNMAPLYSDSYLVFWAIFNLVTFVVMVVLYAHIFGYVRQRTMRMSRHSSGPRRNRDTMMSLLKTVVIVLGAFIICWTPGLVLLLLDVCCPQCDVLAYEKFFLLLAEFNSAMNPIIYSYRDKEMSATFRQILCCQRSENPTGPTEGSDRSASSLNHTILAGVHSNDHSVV

Broadly, the IC50 is the concentration needed to halve the response being measured. In the case of `CCOc1cccc(-c2ccc(NC3(C(=O)O)CCC(F)(F)CC3)cc2COC2CC2)c1C(F)F` [Compound 384], the IC50 was 0.803 nM under setting [1] and under 100 nM under setting [2].

For `CCOc1cccc(-c2ccc(NC3(C(=O)O)CCC(F)(F)CC3)cc2COC2CC2)c1Cl` [Compound 385], the IC50 runs as follows: under setting [1], 0.633 nM; under setting [2], under 100 nM.

Take `O=C(O)C1(Nc2ccc(-c3cccc(OC4CC4)c3Cl)c(COC3CC3)c2)CCC(F)(F)CC1` [Compound 386]: the concentration for half-maximal inhibition (IC50) reads like this: under setting [1], 3.84 nM; under setting [2], under 100 nM.

Regarding `Cc1c(OC2CC2)cccc1-c1ccc(NC2(C(=O)O)CCC(F)(F)CC2)cc1COC1CC1` [Compound 387], the half-maximal inhibitory concentration (IC50) is 4.39 nM under setting [1] and under 100 nM under setting [2].

On to `CCOc1cc(OC)cc(-c2ccc(NC3(C(=O)O)CCC(F)(F)CC3)cc2COC2CC2)c1F` [Compound 388], for which the half-maximal inhibitory concentration (IC50) is 6.2 nM under setting [1] and under 100 nM under setting [2].

With `O=C(O)C1(Nc2ccc(-c3cccc(OC4CC4)c3C(F)F)c(COC3CC3)c2)CCC(F)(F)CC1` [Compound 389], the half-inhibitory concentration (IC50) reads like this: under setting [1], 0.772 nM; under setting [2], under 100 nM.

In the case of `CCCCOCc1cc(NC2(C(=O)O)CCOCC2)ccc1-c1cc(OC)cc(OCC)c1F` [Compound 390], the 50% inhibitory concentration (IC50) is, setting by setting: under setting [1], 0.658 nM; under setting [2], under 100 nM.

With `CCOc1cc(OC)cc(-c2ccc(C3(C(=O)O)CC3)cc2COC2CCCC2)c1F` [Compound 391], the IC50 is 471 nM under setting [1] and 100 to 1000 nM under setting [2].

Regarding `Cc1ccc(-c2ccc(NC3(C(=O)O)CCOCC3)cc2COC2CC2)c(F)c1OC1CC1` [Compound 392], the half-maximal inhibitory concentration (IC50) under setting [1] is 9.44 nM and the IC50 under setting [2] was under 100 nM.

On to `CCCc1nccc(-c2ccc(NC3(C(=O)O)CCOCC3)cc2COC2CC2)c1F` [Compound 393], for which the concentration for half-maximal inhibition (IC50) was over 10000 nM under setting [1] and over 1000 nM under setting [2].

Regarding `CCOc1c(C)ccc(-c2ccc(NC3(C(=O)O)CCOCC3)cc2COCC(C)C)c1C` [Compound 394], the concentration for half-maximal inhibition (IC50) is, setting by setting: under setting [1], 97.6 nM; under setting [2], under 100 nM.

For the compound `CCOc1cc(OC)cc(-c2ccc(NC3(C(=O)O)CCOCC3)cc2COCC(C)C)c1F` [Compound 395], the IC50 is 7.94 nM under setting [1] and under 100 nM under setting [2].

With `CCOc1c(C)c(OC)cc(-c2ccc(NC3(C(=O)O)CCOCC3)cc2COCC(C)C)c1F` [Compound 396], the IC50 under setting [1] was 27.5 nM and the 50% inhibitory concentration (IC50) under setting [2] is under 100 nM.

`COc1cc(-c2ccc(NC3(C(=O)O)CCOCC3)cc2COCC(C)C)c(C)c(OC)c1C` [Compound 397]: the half-maximal inhibitory concentration (IC50) is 73 nM under setting [1] and under 100 nM under setting [2].

For the compound `COc1cc(OC)c(Cl)c(-c2ccc(NC3(C(=O)O)CCOCC3)cc2COCC(C)C)c1` [Compound 398], the IC50 is 104 nM under setting [1] and 100 to 1000 nM under setting [2].

In the case of `CCCCOCc1cc(NC2(C(=O)O)CCOCC2)ccc1-c1ccc(C)c(OCC)c1C` [Compound 399], the half-inhibitory concentration (IC50) is 6.41 nM under setting [1] and under 100 nM under setting [2].

Consider `CCCCOCc1cc(NC2(C(=O)O)CCOCC2)ccc1-c1cc(OC)c(C)c(OCC)c1F` [Compound 400], for which the concentration for half-maximal inhibition (IC50) is, setting by setting: under setting [1], 5.37 nM; under setting [2], under 100 nM.

Take `CCCCOCc1cc(NC2(C(=O)O)CCOCC2)ccc1-c1cc(OC)c(C)c(OC)c1C` [Compound 401]: the half-inhibitory concentration (IC50) reads like this: under setting [1], 5.71 nM; under setting [2], under 100 nM.

In the case of `CCCCOCc1cc(NC2(C(=O)O)CCOCC2)ccc1-c1cc(OC)cc(OC)c1Cl` [Compound 402], the concentration for half-maximal inhibition (IC50) was 7.59 nM under setting [1] and under 100 nM under setting [2].

Turning to `CCOc1cncc(-c2ccc(NC3(C(=O)O)CCOCC3)cc2COC2CC2)c1C(F)F` [Compound 403], the IC50 under setting [1] worked out at 23.1 nM and the half-inhibitory concentration (IC50) under setting [2] is under 100 nM.

As to `CCCCOCc1cc(NC2(C(=O)O)CCOCC2)ccc1-c1cncc(OCC)c1C(F)F` [Compound 404], the IC50 under setting [1] turned out to be 13 nM and the IC50 under setting [2] is under 100 nM.

As for `CCOc1cncc(-c2ccc(NC3(C(=O)O)CCC(F)(F)CC3)cc2COC2CC2)c1C(F)F` [Compound 406], the IC50 was 20 nM under setting [1] and under 100 nM under setting [2].

Regarding `CCOc1cncc(-c2ccc(NC3(C(=O)O)CCOCC3)cc2COC2CC2)c1C` [Compound 407], the concentration for half-maximal inhibition (IC50) is 96.5 nM under setting [1] and under 100 nM under setting [2].

Turning to `CCOc1c(C)ncc(-c2ccc(NC3(C(=O)O)CCOCC3)cc2COC2CC2)c1C` [Compound 408], the IC50 is 152 nM under setting [1] and 100 to 1000 nM under setting [2].

Consider `CCOc1cncc(-c2ccc(NC3(C(=O)O)CCOCC3)c(F)c2COC2CC2)c1C(F)F` [Compound 409], for which the IC50 under setting [1] was 229 nM and the IC50 under setting [2] was in the range of 100 to 1000 nM.

With `CCOc1cncc(-c2c(C)cc(NC3(C(=O)O)CCOCC3)cc2COC2CC2)c1C(F)F` [Compound 410], the half-maximal inhibitory concentration (IC50) runs as follows: under setting [1], 179 nM; under setting [2], 100 to 1000 nM.

For `CCOc1cncc(-c2ccc(NC3(C(=O)O)CCOCC3)cc2COC2Cc3ccccc3C2)c1C` [Compound 411, 4-({3-[(2,3-dihydro-1H-inden-2-yloxy)methyl]-4-(5-ethoxy-4-methylpyridin-3-yl)phenyl}amino)oxane-4-carboxylic acid], the IC50 reads like this: under setting [1], 5.2 nM; under setting [2], under 100 nM.

For `CCOc1cncc(-c2ccc(C3(C(=O)O)CC3)cc2COC2CCCC2)c1C(F)F` [Compound 412], the IC50 is 538 nM under setting [1] and 100 to 1000 nM under setting [2].

On to `CCOc1cncc(-c2ccc(NC3(C(=O)O)CCOCC3)cc2COCCC(C)C)c1C(F)F` [Compound 413, 4-({4-[4-(difluoromethyl)-5-ethoxypyridin-3-yl]-3-[(3-methylbutoxy)methyl]phenyl}amino) oxane-4-carboxylic acid], for which the half-maximal inhibitory concentration (IC50) is, setting by setting: under setting [1], 5.79 nM; under setting [2], under 100 nM.

Consider `CCOc1c(C)ncc(-c2ccc(NC3(C(=O)O)CC(F)(F)C3)cc2COC2CC2)c1C` [Compound 414], for which the 50% inhibitory concentration (IC50) by setting is: under setting [1], 112 nM; under setting [2], 100 to 1000 nM.

Regarding `CCOc1cncc(-c2ccc(OC3(C(=O)O)CCOCC3)cc2COC2CC2)c1C(F)F` [Compound 415], the IC50 under setting [1] turned out to be 66.2 nM and the half-inhibitory concentration (IC50) under setting [2] was under 100 nM.

In the case of `CCOc1cncc(-c2ccc(NC3(C(=O)O)CCOCC3)cc2COC2CC3CC3C2)c1C` (stereo not drawn) [Compound 416, 4-{[3-({bicyclo[3.1.0]hexan-3-yloxy}methyl)-4-(5-ethoxy-4-methylpyridin-3-yl)phenyl]amino}oxane-4-carboxylic acid], the half-inhibitory concentration (IC50) under setting [1] came out at 8.79 nM and the half-maximal inhibitory concentration (IC50) under setting [2] was under 100 nM.

Consider `CCOc1cncc(-c2ccc(NC3(C(=O)O)CCCC3)cc2COC2CC2)c1C` [Compound 417], for which the IC50 runs as follows: under setting [1], 35.8 nM; under setting [2], under 100 nM.
